From patent publication US11534457B2, “Use of dextran sulfate” (priority 2017, dated 2022)

Test system: trabecular meshwork (TM) scarring in glaucomatous eyes
Assay: TGF-β induced glaucoma in rats, trabecular meshwork scarring (laminin, fibronectin immunohistochemistry)
Type: in vivo, Sprague Dawley rats
Procedure: Glaucoma was induced in adult male Sprague Dawley rats by repeat twice weekly intracameral (IC) injections of transforming growth factor-β (TGF-β) to increase intraocular pressure (IOP). Sustained increases in IOP (after two weeks) leads to death of retinal ganglion cells (30-40%). LMW-DS was administered at 15 mg/kg by daily subcutaneous injection […] to assess RGC protection compared to controls.
Group 1 n=12 rats; 24 eyes […] TGF-β (twice weekly for 28 days) between day 0 and day 28+ daily subcutaneous administration of dextran sulfate from day 14 to day 28.
Group 2 n=8 rats; 16 eyes IOP+IC TGF-β (twice weekly for 28 days) between day 0 and day 28+ daily subcutaneous administration of vehicle (saline) from day 14 to day 28.
Measured End-Points • IOP twice weekly throughout study from day 0 to day 28; • Immunohistochemistry for counting retinal ganglion cell (RGC) that are immunoreactive for brain-specific homeobox/POU domain protein 3A (Brn3a) at day 28 (RGC survival); • Immunohistochemistry for laminin and fibronectin to evaluate scarring in the trabecular meshwork at day 28 in Groups 1 and 2; • Anterior segment and optical coherence tomography (OCT) imaging at day 28 to examine the angle and the thickness of the retinal nerve fiber layer comprising RGC axons; and • Body weight at day 28. […]

Substance: low molecular weight dextran sulfate [LMW-DS]
- immunoreactive laminin in the angle (TM scarring) vs saline (15 mg/kg daily s.c. day 14 to day 28, P<0.001): significantly reduced
- immunoreactive fibronectin in the angle (TM scarring) vs saline (15 mg/kg daily s.c. day 14 to day 28, P<0.01): significantly reduced
